Measured values as given in PMC6556873, “Rapid Covalent-Probe Discovery by Electrophile-Fragment Screening” (Journal of the American Chemical Society, 2019).
Like-named read-outs stand apart in the source and are kept apart here.

Tests used:
[1] = target: T1, BSA (Bos taurus, UniProt P02769); set-up: Intact protein LC/MS covalent labelling, fragments in pools of five, 200 uM each, 4 °C; conditions: 24 h, 4 °C, pool of five; 200 µM; covalent
T1 construct: gene ALB

[2] = target: T2, NNMT (hNNMT) (Homo sapiens, UniProt P40261); set-up: Intact protein LC/MS covalent labelling, fragments in pools of five, 200 uM each, 4 °C; conditions: 24 h, 4 °C, pool of five; 200 µM; covalent
T2 construct: wild type, N-terminal His6 tag kept (no cleavage described), E. coli, construct 31248 Da
T2 sequence (P40261 1-264): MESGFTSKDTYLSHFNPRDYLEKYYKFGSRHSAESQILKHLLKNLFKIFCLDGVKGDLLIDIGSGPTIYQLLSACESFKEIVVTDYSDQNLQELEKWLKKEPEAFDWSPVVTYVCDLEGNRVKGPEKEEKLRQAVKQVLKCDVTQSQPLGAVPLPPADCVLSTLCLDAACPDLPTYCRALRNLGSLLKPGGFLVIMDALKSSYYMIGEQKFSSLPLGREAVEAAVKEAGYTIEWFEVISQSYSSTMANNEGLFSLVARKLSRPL

[3] = target: T3, NUDT7 (Homo sapiens, UniProt P0C024); set-up: Intact protein LC/MS covalent labelling, fragments in pools of five, 200 uM each, 4 °C; conditions: 24 h, 4 °C, pool of five; 200 µM; covalent
T3 construct: residues 14-235, E. coli, pNIC28-Bsa4, N-terminal His6 tag removed by TEV, construct 26672 Da

[4] = target: T4, OTUB2 (OTUB2A) (Homo sapiens, UniProt Q96DC9); set-up: Intact protein LC/MS covalent labelling, fragments in pools of five, 200 uM each, 4 °C; conditions: 24 h, 4 °C, pool of five; 200 µM; covalent
T4 construct: full length residues 1-234, E. coli BL21(DE3)-R3, His tag removed by TEV, construct 27312 Da
T4 sequence (Q96DC9 1-234): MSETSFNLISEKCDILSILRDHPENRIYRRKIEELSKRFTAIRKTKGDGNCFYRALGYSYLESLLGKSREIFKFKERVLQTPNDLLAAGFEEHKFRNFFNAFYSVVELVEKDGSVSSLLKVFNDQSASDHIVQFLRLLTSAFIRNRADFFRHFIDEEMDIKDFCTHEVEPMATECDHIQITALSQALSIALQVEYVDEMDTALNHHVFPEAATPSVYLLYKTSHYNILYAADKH

[5] = target: T5, PCAF (Homo sapiens, UniProt Q92831); set-up: Intact protein LC/MS covalent labelling, fragments in pools of five, 200 uM each, 4 °C; conditions: 24 h, 4 °C, pool of five; 200 µM; covalent
T5 construct: gene KAT2B

[6] = in vitro; set-up: species or system CCD841, HEK293; conditions: human, hb2 cells, read-out: HB-2 Cells Viability (%)
[7] = in vitro; set-up: species or system HB2, HEK293; conditions: human, ccd841 cells
[8] = in vitro; set-up: species or system HB2, CCD841; conditions: human, hek293 cells

T3 sequence (P0C024 14-235): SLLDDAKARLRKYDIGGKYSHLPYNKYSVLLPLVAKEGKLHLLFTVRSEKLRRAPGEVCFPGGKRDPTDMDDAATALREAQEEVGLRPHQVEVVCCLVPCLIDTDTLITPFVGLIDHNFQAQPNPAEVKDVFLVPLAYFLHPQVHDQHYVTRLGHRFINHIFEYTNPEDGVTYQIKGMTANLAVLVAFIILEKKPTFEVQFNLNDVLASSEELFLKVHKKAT
T1 sequence (P02769 whole entry, the tested form may be a part): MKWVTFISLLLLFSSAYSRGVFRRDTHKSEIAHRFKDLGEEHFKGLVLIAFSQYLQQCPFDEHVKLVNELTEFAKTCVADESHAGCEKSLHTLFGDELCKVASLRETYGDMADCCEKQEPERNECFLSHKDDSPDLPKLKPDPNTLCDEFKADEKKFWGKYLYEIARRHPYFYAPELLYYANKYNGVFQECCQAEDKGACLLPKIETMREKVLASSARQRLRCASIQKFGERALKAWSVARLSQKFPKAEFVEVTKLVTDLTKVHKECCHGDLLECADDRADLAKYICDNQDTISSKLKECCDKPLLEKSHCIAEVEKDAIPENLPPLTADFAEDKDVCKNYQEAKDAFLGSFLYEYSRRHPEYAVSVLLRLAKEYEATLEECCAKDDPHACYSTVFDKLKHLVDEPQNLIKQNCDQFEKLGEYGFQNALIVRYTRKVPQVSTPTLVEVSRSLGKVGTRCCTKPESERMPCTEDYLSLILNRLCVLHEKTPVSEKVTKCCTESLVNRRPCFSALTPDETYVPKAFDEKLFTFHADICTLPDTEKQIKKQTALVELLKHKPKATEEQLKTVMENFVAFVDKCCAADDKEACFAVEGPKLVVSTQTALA
T5 sequence (Q92831 whole entry, the tested form may be a part): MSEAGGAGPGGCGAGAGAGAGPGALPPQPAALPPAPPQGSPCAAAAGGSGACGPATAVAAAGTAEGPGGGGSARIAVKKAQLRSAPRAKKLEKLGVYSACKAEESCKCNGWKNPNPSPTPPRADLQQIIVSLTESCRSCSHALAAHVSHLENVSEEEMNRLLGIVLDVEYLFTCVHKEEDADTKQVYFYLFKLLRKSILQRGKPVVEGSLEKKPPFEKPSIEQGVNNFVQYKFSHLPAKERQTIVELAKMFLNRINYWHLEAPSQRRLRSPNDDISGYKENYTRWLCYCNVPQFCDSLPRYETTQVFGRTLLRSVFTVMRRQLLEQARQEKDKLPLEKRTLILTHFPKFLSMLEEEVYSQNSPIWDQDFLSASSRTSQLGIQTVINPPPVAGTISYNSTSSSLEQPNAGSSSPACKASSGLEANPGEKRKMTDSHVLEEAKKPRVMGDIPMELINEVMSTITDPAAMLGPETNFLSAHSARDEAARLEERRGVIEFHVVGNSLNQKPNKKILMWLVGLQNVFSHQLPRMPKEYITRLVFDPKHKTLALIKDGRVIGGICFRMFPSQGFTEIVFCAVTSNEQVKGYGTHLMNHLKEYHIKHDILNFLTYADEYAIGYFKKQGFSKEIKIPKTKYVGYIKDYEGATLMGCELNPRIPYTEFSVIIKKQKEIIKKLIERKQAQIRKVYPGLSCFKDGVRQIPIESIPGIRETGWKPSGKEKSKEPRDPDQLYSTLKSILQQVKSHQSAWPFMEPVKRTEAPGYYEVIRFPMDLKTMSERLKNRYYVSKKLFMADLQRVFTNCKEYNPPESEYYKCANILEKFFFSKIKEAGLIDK

| SMILES | BSA [1] | NNMT [2] | NUDT7 [3] | OTUB2 [4] | PCAF [5] | viability at 48 h, 10 µM [6] [%] | viability at 48 h, 10 µM [7] [%] | viability at 48 h, 10 µM [8] [%] |
| --- | --- | --- | --- | --- | --- | --- | --- | --- |
| Cl.O=C(CCl)N1CCN(Cc2ccc3c(c2)CCO3)CC1 [PCM-0102814] | 0.11 | 0.24 | 0 | 0 | 0 | 22.2 | 58.5 | 37.6 |
| CC(NC(=O)CCl)c1ccc2c(c1)CC(=O)N2 (stereo not drawn) [PCM-0102816] | 0 | 0 | 0.22 | 0.29 | 0 | 94.8 | 86 | 74.8 |
| Cc1cccc(CNC(=O)CCl)c1 [PCM-0102821] | 0 | 0.29 | 0 | 0.86 | 0 | 99.7 | 80.7 | 87.5 |
| O=C(CCl)NC(=O)CN1CCCC1=O [PCM-0102824] | 0 | 0 | 0 | 0 | 0 | 105 | 111 | 110 |
| Cc1ccccc1CC(=O)NNC(=O)CCl [PCM-0102829] | 0 | 0 | 0 | 0.3 | 0 | 90.9 | 83.9 | 104 |
| O=C(CCl)N=c1sccn1Cc1cccc2ccccc12 [PCM-0102842] | 0 | 0 | 0 | 0 | 0 | 8.4 | 4.2 | 5.2 |
| Cc1ccc(S(=O)(=O)NC(=O)CCl)cc1 [PCM-0102850] | 0 | 0 | 0 | 0.13 | 0 | 101 | 114 | 81.4 |
| CC(C)(C)CCNC(=O)CCl [PCM-0102853] | 0 | 0.24 | 0 | 0 | 0 | 99.7 | 91.6 | 102 |
| N#CC1(NC(=O)CCl)CCC1 [PCM-0102854] | 0 | 0 | 0.09 | 0 | 0 | 90 | 81.1 | 93.1 |
| N#Cc1cccc(C(=O)NNC(=O)CCl)c1 [PCM-0102857] | 0 | 0 | 0 | 0.41 | 0 | 103 | 82.6 | 102 |
| CCOC(=O)N1CCN(C(=O)CCl)CC1 [PCM-0102861] | 0 | 0 | 0 | 0 | 0 | 114 | 109 | 82.6 |
| O=C(CCl)NC1CCCC(C(F)(F)F)C1 (stereo not drawn) [PCM-0102862] | 0 | 0.29 | 0 | 0.14 | 0 | 95 | 106 | 84 |
| O=C(CCl)Nc1ccc2[nH]c(=O)[nH]c2c1 [PCM-0102866] | 0 | 0 | 0 | 0.3 | 0 | 77.3 | 73.7 | 27.5 |
| CC1CCCN(C(=O)CCl)C1 (stereo not drawn) [PCM-0102867] | 0 | 0 | 0 | 0 | 0 | 102 | 104 | 103 |
| O=C(CCl)NC1CCOc2ccccc21 (stereo not drawn) [PCM-0102871] | 0 | 0 | 0 | 0.44 | 0 | 92.9 | 87.1 | 69.5 |
| COc1cc(=O)[nH]c(NC(=O)CCl)n1 [PCM-0102873] | 0.17 | 0 | 0 | 0 | 0 | 99.9 | 100 | 114 |
| Cc1ccccc1CN1CCN(C(=O)CCl)CC1.Cl [PCM-0102876] | 0 | 0 | 0 | 0 | 0 | 31.1 | 69.2 | 38.1 |
| C=CC(=O)NC(=O)Nc1ccccc1 [PCM-0102883] | 0 | 0 | 0 | 0 | 0 | 5.4 | 17.8 | 4 |
| O=C(CCl)NNC(=O)c1ccc([N+](=O)[O-])cc1 [PCM-0102885] | 0 | 0 | 0 | 0.21 | 0 | 91 | 83.3 | 92.9 |
| C=CC(=O)N1CCN(C2CCCN(C3CCOCC3)C2=O)CC1 (stereo not drawn) [PCM-0102886] | 0 | 0 | 0 | 0 | 0 | 106 | 105 | 104 |
| N#Cc1ccc(C(=O)NNC(=O)CCl)cc1 [PCM-0102892] | 0 | 0 | 0 | 0.14 | 0 | 86.2 | 85.9 | 103 |
| O=C(CCl)Nc1cccc(Cl)c1N1CCOCC1 [PCM-0102893] | 0 | 0.62 | 0.14 | 0 | 0 | 51.2 | 78 | 26.9 |
| CN(Cc1ccc(Cl)s1)C(=O)CCl [PCM-0102898] | 0 | 0.47 | 0.29 | 0 | 0 | 11 | 46.5 | 7.8 |
| O=C(CCl)NC(=O)Cc1ccccc1 [PCM-0102902] | 0 | 0 | 0 | 0 | 0 | 104 | 117 | 116 |
| NS(=O)(=O)c1ccccc1NC(=O)CCl [PCM-0102903] | 0 | 0 | 0.29 | 0.14 | 0 | 65.4 | 55.2 | 69.7 |
| COCC(=O)NC(=O)CCl [PCM-0102904] | 0 | 0 | 0 | 0 | 0 | 101 | 116 | 105 |
| Cl.O=C(CCl)N1CCN(c2ccc(F)cc2)CC1 [PCM-0102905] | 0 | 0.2 | 0.1 | 0.07 | 0 | 24.7 | 77 | 56.8 |
